How the values were obtained:
Haemophilus influenzae = experiment: Clinical course of Patient #10 under antibiotic treatment, tracked by GTPase assay; assay type: in vivo, human
Excerpt: FIG. 4 G-Trap data readout, showing: A. Histograms of Cyto-Plex™ beads coded with discrete levels of 700 nm fluorescence beads for target GTPases. B&C. Flow cytometry histograms associated with GTPase activity in cell lysates exposed to blood plasma drawn from Patient #10 shown in FIG. 4D on day 0 (pre-infection) and 11 (post infection). D. Quantitative analysis of GTP binding to cytoplex beads in cell lysates treated with plasma drawn from Patient #10: a person was admitted after being crushed by a car. On day 2 a bacterial infection was suspected, thus a sputum culture was ordered and the patient was treated with broad-spectrum antibiotics including vancomycin and piperacillin/tazobactam. […] Patient's blood pressure trended upwards. On day 7, sputum-culture sent on day #2 was determined to be positive for Haemophilus influenzae and antibiotics were changed to 3 days of ceftriaxone (days 7-9). […] The onset of infection was sensitively detected by an increase in GTP binding to Rap1 and Rac1. […] E. Quantitative analysis of GTPase activity induced by Patient #3 plasma (see FIG. 2A-C). F. Quantitative analysis of GTPase activity induced by Patient #13 plasma. […] G Quantitative analysis of GTPase activity induced by Patient #14 plasma; a person admitted with no injuries after a low-speed car collision. […]

ChemR23 = biological target: T1, ChemR23 (Homo sapiens, UniProt Q99788); experiment: G-Trap measurement of Rac1-GTP in cells challenged with Patient #10's plasma, with the ChemR23 antagonist; assay type: cell-based; conditions: Patient #10 plasma
T1 construct: endogenous in cells
T1 sequence (Q99788 1-373): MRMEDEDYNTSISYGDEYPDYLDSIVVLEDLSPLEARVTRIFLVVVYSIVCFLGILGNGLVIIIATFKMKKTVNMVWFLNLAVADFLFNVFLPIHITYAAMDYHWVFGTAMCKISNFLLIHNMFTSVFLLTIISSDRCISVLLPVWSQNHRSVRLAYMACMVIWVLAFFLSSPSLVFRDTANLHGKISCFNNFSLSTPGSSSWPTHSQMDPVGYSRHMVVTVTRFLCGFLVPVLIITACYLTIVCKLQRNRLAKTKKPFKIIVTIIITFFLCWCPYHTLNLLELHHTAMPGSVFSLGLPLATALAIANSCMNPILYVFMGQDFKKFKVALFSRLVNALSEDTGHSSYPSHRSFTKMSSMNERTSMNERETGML
Excerpt: As shown in FIGS. 2-4, the inventors use flow cytometry multiplex beads that are functionalized with signaling effector molecules of target GTP bound small GTPases to determine changes in the concentration of active GTPases in the blood plasma of trauma patients before and after a clinically diagnosed infection (FIGS. 6&7). In this setting, the beads capture GTP-bound GTPases in lysates of cells that were challenged with plasma samples of study subjects and then quantitatively analyzed on a flow cytometer.^9
Pilot study Proteomic of Patient #10 and #14 plasma samples. Laser densitometer readings of duplicate patient plasma samples (#10, and #14) were computer analyzed for differential expression of proteins as previously described. Spot data showing significant differences between patient samples and controls were determined from adjusted p-values using FDR (and Bonferroni) analysis as previously described. Ten spots were selected for mass spectrometry analysis. The selection was based on the magnitude of change in expression as well as positive correlation to trends in GTPase activity. Preliminary validation assay were performed Spot #130-CPN for patient 10 and Spot #102; Angiotensinogen for Patient 14, because of their overt connection to GTPase activity profile and the immediate availability of assay tools to confirm their presence. The value proposition of the invention as a clinical decision support tool is illustrated in FIG. 6. FIG. 6A panels show the patient's vital signs, which are indeterminate. The illness history of Patient 10 is summarized in example Case #2 above caption and recapitulated in FIG. 6B. […] The rationale for testing CPN in secondary assays was based on the following. CPN is a metallocarboxypeptidase that regulates complement anaphylatoxins (C3a, C4a, and C5a). [2; 3; 4] For clarity, the expression of carboxypeptidase N (CPN) are superimposed over changes in GTP binding to Rac1 and Rap1 (FIG. 6C) for days 8-11. […] We reasoned that the plasma upregulation of CPN was due to Haemophilus influenzae associated LPS. […] [6; 7; 8] […] [5]

ChemR23 (CMKLR1) = biological target: T2, ChemR23 (CMKLR1) (Homo sapiens, UniProt Q99788); conditions: read-out: Kd, antagonist for ChemR23; cited from earlier work
T2 sequence (Q99788 1-373): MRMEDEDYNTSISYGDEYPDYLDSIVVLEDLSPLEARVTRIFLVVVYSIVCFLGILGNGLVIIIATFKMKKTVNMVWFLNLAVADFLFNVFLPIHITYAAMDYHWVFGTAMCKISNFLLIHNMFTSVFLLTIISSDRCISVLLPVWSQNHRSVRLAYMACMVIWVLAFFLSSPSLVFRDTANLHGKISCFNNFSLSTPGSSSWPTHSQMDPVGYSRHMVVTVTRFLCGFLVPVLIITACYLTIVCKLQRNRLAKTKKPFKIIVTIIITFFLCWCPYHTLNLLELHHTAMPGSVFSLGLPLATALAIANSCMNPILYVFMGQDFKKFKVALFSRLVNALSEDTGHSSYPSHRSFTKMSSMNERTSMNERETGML

Rap1 [1] = experiment: LPS induced GTP loading of Rap1, GTPase activity measured in cell lysates; assay type: cell-based; conditions: Vero E cells, exposed for 30 min
Excerpt: (§1) To establish a possible mechanistic link connecting GTPase activity, bacteria virulence factors and innate immune response to bacteria, we measured GTPase activity in cell lysates challenged cells with lipopolysaccharide (LPS) a Gram-negative bacterial endotoxin, which stimulates GTP binding to Rap1 in phagocytes and endothelial cells via CD14^18 (FIGS. 1A&B). […] Given the in vitro associations between Flt-3L and Rac1-GTP, we hypothesized that bacterial infection stimulates coordinate-increases in Flt-3L and Rap1-GTP. Furthermore, based on our data we hypothesized that LPS found in Gram negative bacteria, is likely to synergistically upregulate Rap1-GTP in tandem with Flt-3L which stimulates the upregulation of both Rap1-GTP and Rac-GTP. These findings were subsequently built-upon and extended to a retrospective study of longitudinal samples from trauma patients who developed hospital acquired infections. The human plasma samples were analyzed for 41 common inflammatory mediators using the 41plex HCYTMAG-60K-PX41 Cytokine kit, Human (Millipore, MA). In parallel, GTP loading of RhoA, Rac, and Rap1 was measured in cell lysates after their exposure to the plasma samples. […] We have previously disclosed a method of quantitative multiplex measurements of GTP binding to small GTPases. […]
(§2) C. […] GTPase activity was measured in cell lysates after the cells were exposed to LPS or Flt-3L for 30 min.

Rap1 [2] = experiment: Flt-3L induced GTP binding to Rap1, GTPase activity measured in cell lysates; assay type: cell-based; conditions: endothelial cells, exposed for 30 min
Excerpt: as §1, §2

Rac1 = experiment: Flt-3L induced GTP binding to Rac1, GTPase activity measured in cell lysates; assay type: cell-based; conditions: cells exposed to Flt-3L
Excerpt: as §1

CO/N=C(\C(=O)N[C@@H]1C(=O)N2C(C(=O)O)=C(CSc3nc(=O)c(=O)[nH]n3C)CS[C@H]12)c1csc(N)n1 [Ceftriaxone, ceftriaxone]
treatment outcome indicated by GTPase assay (Haemophilus influenzae; Patient #10, 3 days of treatment (days 7-9), read on day 9): failure of treatment
clinical outcome (Haemophilus influenzae; Patient #10, restarted on day 14, lasted 7 days): patient recovery

C[N+](C)(C)CCC(=O)c1cccc2ccccc12.[I-] [α-NETA]
inhibition of GTPase activity (ChemR23; day 6): 40%
inhibition of GTPase activity (ChemR23; day 11): 20%
inhibition of GTPase activity (ChemR23; day 12): 25%
Kd (ChemR23 (CMKLR1)): ~6 µM

lipopolysaccharide [LPS]
GTP loading of Rap1 (Rap1 [1]): induced GTP loading of Rap1

B1: Flt-3L: hematopoietic four helical bundle cytokine, Fms-like tyrosine kinase-3 ligand (protein, UniProt P49771 27-235, looked up)
Fms-related tyrosine kinase 3 …: TQDCSFQHSPISSDFAVKIRELSDYLLQDYPVTVASNLQDEELCGGLWRLVLAQRWMERLKTVAGSKMQGLLERVNTEIHFVTKCAFQPPPSCLRFVQTNISRLLQETSEQLVALKPWITRQNFSRCLELQCQPDSSTLPPPWSPRPLEATAPTAPQPPLLLLLLLPVGLLLLAAAWCLHWQRTRRRTPRPGEQVPPVPSPQDLLLVEH
GTP binding to Rap1 (Rap1 [2]): induced GTP binding to Rap1
GTP binding to Rac1 (Rac1): elicited GTP binding to Rap1 and Rac1

— patent US12123881B2, “Rap1-Gtp, Rac1-GTP and FMS-like tyrosine kinase 3 ligand (FLT3-L) as biomarkers for early detection of sepsis” (UNM Rainforest Innovations, priority 2018, dated 2024)
